Data published in patent publication US11072592B2, “Small molecules that enable cartilage rejuvenation” (The Regents of the University of California, priority 2015, dated 2021).
Entries after “also recorded” stand apart in the source; their conditions may differ.

Key:
Format in all cases: cell-based
pSTAT3 and MYC = experiment: Western blot of pSTAT3 and MYC in adult human articular chondrocytes; settings: for levels of MYC / levels of pSTAT3: adult human articular cartilage/chondrocytes, treated vs untreated, relative to histone H3
Source text: Only early passages of chondrocytes (passage 0-2) were used for experimentation to avoid de-differentiation and loss of cartilage phenotype (Wu et al., 2014). Cartilage explants were made using 1, 2 or 8 mm biopsy punch and wet weight of each explant determined prior to experimentation. For cell isolation cartilage tissue was digested as described previously (Wu et al., 2015). Postnatal paraffin embedded joint and growth plate specimens were kindly donated by Dr Marcel Karperien from the University of Twente (Netherlands) and Dr Nick Bernthal from University of California Los Angeles. All donated material was anonymous and carried no personal identifiers. Cell culture reagents were purchased from Life Technologies, Inc. (Grand Island, N.Y.). Growth factors LIF, OSM, IL-6, TNF-α, IL-1β were purchased from Life Technologies, Inc (Grand Island, N.Y.). STATTIC, 10058-F4, SCl44 hydrochloride, and CP-690550 were purchased from Sigma Aldrich (St. Louis, Mo.). RCGD 423 (N-(4-Bromophenyl)-4-phenyl-1,3-thiazol-2-amine) was synthesized and provided by MolPort (Riga, Latvia). Fetal, adult and pig chondrocytes were cultured in DMEM F12 medium containing 10% (vol/vol) fetal bovine serum and 1% Penicillin-Streptomycin (vol/vol) at 37° C. in a humidified atmosphere of 95% aid and 5% CO2. Media was replenished with DMEM F12 medium containing 1% (vol/vol) fetal bovine serum and 1% Penicillin-Streptomycin (vol/vol) once treatments were added. For 3-dimensional (3D) cell cultures adult human articular chondrocytes were incubated with or without RCGD 423 using 10% solution of Mebiol® hydrogel from Cosmo Bio (Carlsbad, Calif.) in X-vivo 15 serum free medium from Lonza (Walkersville, Md.) as described previously (Wu et al., 2014).
(§1) Treated and non-treated ells were lysed in RIPA Lysis and Extraction Buffer (Pierce, Rockford, Ill.) containing protease inhibitors (Pierce) followed by sonication with a 15-second pulse at a power output of 2 using the VirSonic 100 (SP Industries Company, Warminster, Pa.). Protein concentrations were determined by BCA protein assay (Pierce). Proteins were resolved with SDS-PAGE utilizing 4-15% Mini-PROTEAN TGX Precast Gels and transferred to Trans-Blot Turbo Transfer Packs with a 0.2-μm pore-size nitrocellulose membrane. The SDS-PAGE running buffer, 4-15% Mini-PROTEAN TGX Precast Gels, Trans-Blot Turbo Transfer Packs with a 0.2-μm pore-size nitrocellulose membrane were purchased from Biorad (Hercules, Calif.). Nitrocellulose membranes were blocked in 5% nonfat milk in 0.05% (v/v) Tween 20 (PBST) (Corning, Manassas, Va.). Membranes were then incubated with primary antibodies phospho-STAT3 (#9131), MYC (#5605), NF-κB p65 (#D14E12), pAKT (#9272) Histone 3 (#9715) from Cell Signaling, (Danvers, Mass.); MEK1/2 (ab70613) and p38 (ab795) from Abcam (Cambridge, Mass.) overnight. After washing in PBS containing 0.05% (v/v) Tween 20 (PBST), membranes were incubated with Goat anti-Rabbit IgG (H+L) Secondary Antibody (Thermo Scientific Rockford, Ill.). After washing, membranes were developed with the Clarity Western ECL Blotting Substrate (Hercules, Calif.).

[1] = test system: MAPK, AKT, NF-κB pathways; experiment: Western blot of MAPK, AKT and NF-κB signaling in adult pig articular chondrocytes; settings: 24 hours
Experimental: (§2) FIGS. 30A-30B. […] (FIG. 30A) Adult pig articular chondrocytes were cultured for 24 hours with the indicated cytokines or RCGD 423 and the levels of pSTAT3 and MYC were measured with respect to histone H3. Representative data for other proteins in the MAPK (p38 and MEK1/2), AKT (phospho-AKT; pAKT) or NF-KB (NF-KB p65) are also shown. (FIG. 30B) Levels of transcription of genes indicative of a catabolic response were determined via quantitative PCR in adult pig articular chondrocytes treated with OSM, IL-6, TNF-α, LIF or RCGD 423. Data are represented at mean±SD.
(§3) Cartilage degeneration is generally considered a feed-forward process, in which small losses of chondrocytes result in microenvironmental changes including induction of an inflammatory response and other pro-catabolic events (Hunziker, 2002). In turn, these alterations in the joint milieu promote production of matrix degrading proteins including MMPs (collagenases) and proteins of the ADAMTS family (aggrecanases). LIF has been implicated in promoting this cycle of matrix destruction during the pathogenesis of osteoarthritis (Hui et al., 2000; Lotz et al., 1992), although its role in this process has been controversial. In order to better understand the mechanism of action of LIF, RCGD 423 and known pro-inflammatory cytokines in the promotion of degeneration, we stimulated adult pig articular chondrocytes with these molecules and quantitated the levels of activated downstream proteins that mediate the cellular signaling response (FIG. 30A).
as §1

[2] = test system: MMP13, ADAMTS4 and ADAMTS5; experiment: Quantitative PCR of catabolic genes in adult pig articular chondrocytes
Experimental: as §2, §3
Total RNA was extracted using RNeasy Micro Kit (QIAGEN, Valencia, Calif.) according to the manufacturer's protocol. Quantitative reverse transcription PCR was performed using Bio-Rad T100 Thermal Cycler (Bio-Rad, Hercules, Calif.). Primer sequences are available upon request.

[3] = 48 hours after withdrawal (data not shown)
[4] = human adult articular chondrocytes, 1 μM

| Compound | levels of MYC (pSTAT3 and MYC) | levels of pSTAT3 (pSTAT3 and MYC) | activation of AKT [1] | activation of the MAPK pathway [1] | transcription of matrix degrading enzymes (MMP13, ADAMTS4 and ADAMTS5) [2] | specificity and selectivity of effect for p-STAT3 and c-MYC (pSTAT3 and MYC) | protein level of c-MYC after withdrawal (pSTAT3 and MYC; [3]) | protein level of p-STAT-3 after withdrawal (pSTAT3 and MYC; [3]) | levels of c-MYC (pSTAT3 and MYC; [4]) | levels of p-STAT3 (pSTAT3 and MYC; [4]) | NF-κB protein [1] |
| --- | --- | --- | --- | --- | --- | --- | --- | --- | --- | --- | --- |
| LIF: interleukin 6 (IL-6)-class cytokine | large increases; also recorded: robustly increased | large increases; also recorded: robustly increased | stimulated the activation; also recorded: strong activation | weaker response | neither cytokine resulted in substantial transcriptional upregulation | – | – | – | – | – | – |
| Brc1ccc(Nc2nc(-c3ccccc3)cs2)cc1 [RCGD 423, N-(4-Bromophenyl)-4-phenyl-1,3-thiazol-2-amine] | robustly increased | robustly increased | did not activate; also recorded: no activation | weakly activating | no upregulation; also recorded: does not promote catabolism | highly specific and selective | decreased | decreased | elevated | elevated | did not activate AKT or stabilize |
